The source of these data is US6750348B1, “Chemokine receptor binding heterocyclic compounds” (AnorMED, Inc., priority 1999, dated 2004).

Experiment [1] concerns SDF-1α induced Ca flux in SUP-T1 cells. Briefly: Inhibition of SDF-1α induced Ca flux in SUP-T1 cells (FLIPR). It counts as cell-based. As to conditions: Homo sapiens, read-out: inhibited SDF-1α induced Ca flux; for inhibition at 20 µg/mL: at 20 μg/mL. The method, then:
Loading dye: Fluo-3, AM (Molecular Probes F-1241) is dissolved in anhydrous DMSO and stored frozen in aliquots. To increase the solubility of the dye in the loading medium, 10% (w/v) pluronic acid (Molecular Probes F-127) is added to the Fluo-3 stock solution immediately before use.
HBSS+20 mM Hepes buffer+0.2% BSA, pH 7.4. HBSS 10× [(w/o phenol red and sodium bicarbonate (Gibco 14 065-049)]; Hepes buffer 1M (Gibco 15 630-056), BSA (Sigma A3675). The flux buffer is vacuum-filtered and stored refrigerated for a maximum of 5 days. Before use in the experiment, the buffer is warmed at 37° C. in a waterbath.
The test compounds were diluted in flux buffer and added to 4 wells of a black microplate (4 parallel measurements per compound).
The chemokines are diluted in flux buffer to concentrations that are 4-fold higher than the desired concentrations required for stimulation of the cells (i.e. 2.5 nM for SDF-1α and 0.6 nM for RANTES). The chemokines were added to untreated 96-well Sero well compound plates (International Medical, Sterilin code 611F96). In the negative control well's (baseline monitoring), flux buffer is added instead of chemokine. As a positive control to check for dye loading efficiency, 20 μM digitonin (final concentration) was also included. The agonist plate was incubated in the FLIPR (37° C.) for 15-30 min.
SUP-T1 cells were centrifuged at room temperature (RT) and re-suspended in loading medium (RPMI-1640 containing 2% FBS and 4 μM Fluo-3, AM). The cells were incubate at room temperature for 45 min. then washed twice in flux buffer then incubated in flux buffer at room temperature for 10 min. The cells were centrifuged and re-suspended in flux buffer at a density of 3×10^6 cells per mL. […] The microplate is then gently centrifuged at room temperature. Homogeneous spreading of the cells on the bottom of the microplate wells was then confirmed with a microscope and the microplate was incubated in the FLIPR (37° C.) for 10 min. prior to testing.
The FLIPR settings (camera exposure time and laser power) are adjusted to obtain initial fluorescence values between 8,000 and 10,000 units. After monitoring a 20 second-baseline, the agonist (chemokine) (50 μL) is added by automatic pipettor with black pipette tips. Fluorescence is measured simultaneously in all wells of the microplate every 2 seconds (first 2 min) and thereafter every 6 seconds (additional 2 min). The average ca-flux measured in each set of 4 identical wells (one test compound) was calculated by the FLIPR software.
The compounds of the current invention were tested for inhibition of SDF-1α induced Ca flux in SUP-T1 cells using the method described above.

Another experiment has as its system HIV-1 NL4.3 or IIIB. Briefly: Inhibition of HIV-1 (NL4.3 or IIIB) replication in MT-4 cells (MTT). It counts as cell-based. The settings on record: Human immunodeficiency virus 1, IIIB. On the procedure:
Compounds were tested for their ability to inhibit HIV-1 replication in MT-4 cells or PBMC's (peripheral blood mononucleocytes) using published procedures (for example, see: Labrosse et al. J. Virol. 1998, 6381-6388; Simmons et al. J. Virol. 1998, 8453-8457; Donzella et al. Nature Medicine 1998, 72-77; Schols et al. J. Exp. Med. 1997, 1383-1388; De Clercq et al. Antiviral Res. 1997, 147-156; and Bridger et al. U.S. patent application Ser. No. 09/111,895). In addition to the above references, experimental methods for performing anti-viral assays can also be found in: Bridger et al. J. Med. Chem. 1995, 38, 366-378; Bridger et al. J. Med. Chem. 1996, 39, 109-119; Bridger et al. U.S. Pat. No. 5,698,546; Bridger et al. U.S. Pat. No. 5,583,131; Bridger et al. U.S. Pat. No. 5,817,807; De Clercq et al. Antimicrob. Agents and Chemother. 1994, 38, 668-674.
1. The HIV-1 strains NL4.3 and IIIB are T-tropic strains that exclusively use CXCR4 as the co-receptor for entry into cells. MT-4 Cells express CXCR4 but not CCR5.
Inhibition of HIV-1 NL4.3 (or IIIB) replication assays were performed as previously described (Bridger et al. J. Med. Chem. 1999, 42, 3971-3981; De Clercq et al. Proc. Natl. Acad. Sci, 1992, 89, 5286-5290; De Clercq et al. Antimicrob. Agents Chemother. 1994, 38, 668-674; Bridger et al. J. Med. Chem. 1995, 38, 366-378). Anti-HIV activity and cytotoxicity measurements were carried out in parallel. They were based on the viability of MT-4 cells that had been infected with HIV in the presence of various concentrations of the test compounds. After the MT-4 cells were allowed to proliferate for 5 days, the number of viable cells was quantified by a tetrazolium-based calorimetric 3-(4,5-dimethylthiazol-2-yl)-2,5-diphenyltetrazolium bromide (MTT) procedure in 96-well microtrays. In all of these assays, viral input (viral multiplicity of infection, MOI) was 0.01, or 100 times the 50% cell culture infective dose (CCID50). The EC50 was defined as the concentration required to protect 50% of the virus-infected cells against viral cytopathicity.

Setting [2] is: MT4, read-out: EC50, inhibition of HIV-1 NLA.3 or IIIB replication.

By EC50 is commonly meant the concentration giving half of the maximal effect.

Like-named read-outs stand apart in the source and are kept apart here. Some results are limits rather than exact numbers.

`O=C(NN1CCC(N(Cc2ccc(CNCc3ccccn3)cc2)Cc2ccccn2)CC1)c1cccnc1` [Example 131, N-[1-(3-pyridinecarboxamido)-4-piperidinyl]-N,N′-bis(2-pyridinylmethyl)-1,4-benzenedimethanamine]: in experiment [1], the inhibition at 20 µM is more than 20%.

As for `Cc1onc(-c2ccccc2Cl)c1C(=O)NN1CCC(N(Cc2ccc(CNCc3ccccn3)cc2)Cc2ccccn2)CC1` [Example 135, N-[1-[3-(2-chlorophenyl)-5-methyl-isoxazol-4-carboxamido]-4-piperidinyl]-N,N′-bis(2-pyridinylmethyl)-1,4-benzenedimethanamine], the inhibition at 20 µM in experiment [1] is more than 20%.

For `Cn1c(CN(CCc2ccccn2)Cc2ccc(CNCc3ccccn3)cc2)nc2ccccc21` [Example 183, N-[1-methylbenzimidazol-2-ylmethyl]-N-[2-(2-pyridinyl)ethyl]-N′-(2-pyridinylmethyl)-1,4-benzenedimethanamine], the inhibition at 20 µM in experiment [1] was more than 20%.

For `c1ccc(CNCc2ccc(CNc3cccc4c3NCCC4)cc2)nc1` [Example 9, N-(2-pyridinylmethyl)-N′-(1,2,3,4-tetrahydro-8-quinolinyl)-1,4-benzenedimethanamine], the inhibition at 20 µg/mL in experiment [1] was more than 20%.

Regarding `Cn1cc(CN(CCc2ccccn2)Cc2cccc(CNCc3ccccn3)c2)c2ccccc21` [Example 180, N-[(1-methyl)benzo[b]pyrrol-3-ylmethyl]-N-[2-(2-pyridinyl)ethyl]-N′-(2-pyridinylmethyl)-1,3-benzenedimethanamine], the inhibition at 20 µM in experiment [1] was more than 20%.

`CCCCN1CCC(N(CCc2ccccn2)Cc2cccc(CNCc3ccccn3)c2)CC1` [Example 177, N-[1-butyl-4-piperidinyl]-N-[2-(2-pyridinyl)ethyl]-N′-(2-pyridinylmethyl)-1,3-benzenedimethanamine]: the inhibition at 20 µM in experiment [1] was more than 20%.

In the case of `NCCN(Cc1ccc(CNCc2ccccn2)cc1)C1CCCc2cccnc21` (stereo not drawn) [Example 31, N-(2-pyridinylmethyl)-N′-(2-aminoethyl)-N′-(5,6,7,8-tetrahydro-8-quinolinyl)-1,4-benzenedimethanamine], in experiment [1], the inhibition at 20 µg/mL was more than 20%.

For the compound `c1ccc(CN2CCC(N(CCc3ccccn3)Cc3ccc(CNCc4ccccn4)cc3)CC2)cc1` [Example 182, N-[1-(benzyl)-4-piperidinyl]-N-[2-(2-pyridinyl)ethyl]-N′-(2-pyridinylmethyl)-1,4-benzenedimethanamine], the inhibition at 20 µM in experiment [1] is more than 20%.

Turning to `c1ccc(CN(Cc2ccc(CNCc3ccccn3)cc2)C2CCCc3cccnc32)cc1` (stereo not drawn) [Example 60, N-(2-pyridinylmethyl)-N′-(phenylmethyl)-N′-(5,6,7,8-tetrahydro-8-quinolinyl)-1,4-benzenedimethanamine], the inhibition at 20 µg/mL in experiment [1] is more than 20%.

On to `CC(C)N1CCC(N(Cc2ccc(CNCc3ccccn3)cc2)Cc2ccccn2)CC1` [Example 147, N-[1-(iso-propyl)-4-piperidinyl]-N,N′-bis(2-pyridinylmethyl)-1,4-benzenedimethanamine], for which, in experiment [1], the inhibition at 20 µM was more than 20%.

For the compound `NCC(=O)N(Cc1ccc(CNCc2ccccn2)cc1)C1CCCc2cccnc21` (stereo not drawn) [Example 72, N-[[4-[[(2-pyridinylmethyl)amino]methyl]phenyl]methyl]-N-(5,6,7,8-tetrahydro-8-quinolinyl)-glycinamide], in experiment [1], the inhibition at 20 µg/mL was more than 20%.

Consider `c1ccc(-c2[nH]c3ccccc3c2CN(CCc2ccccn2)Cc2ccc(CNCc3ccccn3)cc2)cc1` [Example 184, N-[(2-phenyl)benzo[b]pyrrol-3-ylmethyl]-N-[2-(2-pyridinyl)ethyl]-N′-(2-pyridinylmethyl)-1,4-benzenedimethanamine], for which the inhibition at 20 µM in experiment [1] was more than 20%.

Regarding `O=C(c1ccccc1)N1CCC(N(CCc2ccccn2)Cc2cccc(CNCc3ccccn3)c2)CC1` [Example 178, N-[1-benzoyl-4-piperidinyl]-N-[2-(2-pyridinyl)ethyl]-N′-(2-pyridinylmethyl)-1,3-benzenedimethanamine], the inhibition at 20 µM in experiment [1] is more than 20%.

In the case of `O=C(c1ccccn1)N(Cc1ccc(CNCc2ccccn2)cc1)C1CCCc2cccnc21` (stereo not drawn) [Example 79, N-[[4-[[(2-pyridinylmethyl)amino]methyl]phenyl]methyl]-N-(5,6,7,8-tetrahydro-8-quinolinyl)-picolinamide], in experiment [1], the inhibition at 20 µg/mL is more than 20%.

Regarding `c1ccc(CNCc2ccc(CN(Cc3ccc[nH]3)C3CCCc4cccnc43)cc2)nc1` (stereo not drawn) [Example 26, N-(2-pyridinylmethyl)-N′-[2-pyrrolylmethyl]-N′-(5,6,7,8-tetrahydro-8-quinolinyl)-1,4-benzenedimethanamine], the inhibition at 20 µg/mL in experiment [1] is more than 20%.

As for `O=C(c1cnccn1)N(Cc1ccc(CNCc2ccccn2)cc1)C1CCCc2cccnc21` (stereo not drawn) [Example 75, N-[[4-[[(2-pyridinylmethyl)amino]methyl]phenyl]methyl]-N-(5,6,7,8-tetrahydro-8-quinolinyl)-pyrazinamide], the inhibition at 20 µg/mL in experiment [1] was more than 20%.

Take `Cc1onc(-c2ccccc2Cl)c1C(=O)N1CCC(N(Cc2cccc(CNCc3ccccn3)c2)Cc2ccccn2)CC1` [Example 98, N,N′-bis(2-pyridinylmethyl)-N-[1-[3-(2-chlorophenyl)-5-methyl-isoxazol-4-oyl]-4-piperidinyl]-1,3-benzenedimethanamine]: the inhibition at 20 µM in experiment [1] was more than 20%.

Regarding `N#Cc1ccc(CN(Cc2ccc(CNCc3ccccn3)cc2)C2CCCc3cccnc32)cc1` (stereo not drawn) [Example 101, N-[(4-cyanophenyl)methyl]-N′-(2-pyridinylmethyl)-N-(5,6,7,8-tetrahydro-8-quinolinyl)-1,4-benzenedimethanamine], the EC50 in the experiment with HIV-1 NL4.3 or IIIB (setting [2]) is less than 20 µM.

As for `O=C(NCCN(Cc1ccc(CNCc2ccccn2)cc1)C1CCCc2cccnc21)c1ccc2ccccc2c1` (stereo not drawn) [Example 19, N-(2-pyridinylmethyl)-N′-(2-(2-naphthoyl)aminoethyl)-N′-(5,6,7,8-tetrahydro-8-quinolinyl)-1,4-benzenedimethanamine], in the experiment with HIV-1 NL4.3 or IIIB (MT4, read-out: EC50, inhibition of HIV-1 NL4.3 or IIIB replication), the EC50 was less than 20 µg/mL.

Consider `COc1cccc(CN(Cc2ccc(CNCc3ccccn3)cc2)C2CCCc3cccnc32)c1OC` (stereo not drawn) [Example 95, N-[(2,3-dimethoxyphenyl)methyl]-N′-(2-pyridinylmethyl)-N-(5,6,7,8-tetrahydro-8-quinolinyl)-1,4-benzenedimethanamine], for which the EC50 in the experiment with HIV-1 NL4.3 or IIIB (setting [2]) is less than 20 µM.

`CCc1ccc(CN(Cc2ccc(CNCc3ccccn3)cc2)C2CCCc3cccnc32)s1` (stereo not drawn) [Example 123, N-(5-ethylthiophene-2-ylmethyl)-N′-(2-pyridinylmethyl)-N-(5,6,7,8-tetrahydro-8-quinolinyl)-1,4-benzenedimethanamine]: the EC50 in the experiment on HIV-1 NL4.3 or IIIB (setting [2]) is less than 20 µM.
